Measurements taken from PubChem BioAssay AID814 (SRMLSC, 2007).
Activity calls are given as the source filed them. How the calls were made is not given here.

System: cell imaging, HER kinase expression, mean fluorescence
Test: HER kinase expression suppression, imaging readout – mean fluorescence, total cell number, dose response (AID 814)
[1] = measured here: total cell number (cytotoxicity)

EC50	SMILES	EC50 [1] [µM]
8.32 µM	CCN1/C(=C/C(=O)c2ccco2)Sc2ccccc21	> 10
9.35 µM	CCCn1c(NC(=O)c2ccco2)nc2ccccc21	> 10
8.31 µM	Cn1c(C(C#N)C(=O)c2ccco2)nc2ccccc21 (stereo not drawn)	> 10
4.69 µM	Nc1nnnn1/N=C/C(Br)=C/c1ccccc1	> 10
8.72 µM	O=S1(=O)C=C(Sc2nnc(-c3ccccc3)o2)c2ccccc21	> 10
8.3 µM	Cc1nn2c(-c3ccco3)nnc2c2ccccc12	> 10
> 10 µM (inactive)	CS(=O)(=O)c1nc(-c2ccccc2)cc(C(F)(F)F)n1	> 10

The remaining lines, values behind:

SMILES	EC50	EC50 [1] [µM]
CS(=O)(=O)c1nc(-c2ccco2)cc(C(F)(F)F)n1	> 10 µM (inactive)	> 10
Cc1ccc(-c2csc3ncnc(Sc4nnc(CN5CCCCCC5=O)o4)c23)cc1	8.06 µM	> 10
O=S1(=O)C=C(Sc2nc3cc(Cl)ccc3o2)c2ccccc21	> 10 µM (inactive)	> 10
COc1ccc(C(=O)C(CN2CCCC2)c2ccccc2)cc1 (stereo not drawn)	8.27 µM	> 10
CC(=O)c1sc2nc(-c3cccs3)cc(C(F)(F)F)c2c1N	> 10 µM (inactive)	> 10
Cc1nc(NC(=O)c2ccco2)sc1C(=O)Nc1ccc(Br)cc1	8.41 µM	> 10
CCCCS(=O)(=O)/C=C\C=C/S(=O)(=O)CCCC	8.14 µM	7.52
COC(=O)c1sccc1NC(=O)c1ccc(Cl)s1	6.49 µM	> 10
CS(=O)(=O)c1nc(-c2cccs2)cc(C(F)(F)F)n1	> 10 µM (inactive)	> 10
CSC1=N/C(=C\C=C\c2cccs2)C(=O)S1	> 10 µM (inactive)	> 10
O=S(=O)(C/C(=C/CO)S(=O)(=O)c1ccccc1)c1ccccc1	> 10 µM (inactive)	> 10
O=C(CSc1nc2cc(Cl)ccc2s1)c1ccco1	> 10 µM (inactive)	> 10
Cc1nc2nc(-c3ccco3)nn2c(C)c1Cl	9.52 µM	> 10
O=S1(=O)C=C(Sc2nc3ccccc3s2)c2ccccc21	5.41 µM	7.61
CN(C)CC(C(=O)c1ccccc1)c1ccccc1 (stereo not drawn)	6.95 µM	> 10
O=S(=O)(CC(CN1CCCC1)N1CCCC1)c1ccc2ccccc2c1 (stereo not drawn)	7.75 µM	> 10
Cc1ccc(CNC(=O)c2cc3c(-c4ccc(Cl)cc4)nn(C)c3s2)o1	> 10 µM (inactive)	> 10
